Assay results: patent US5843968A, “Symmetrical bis-heteroarylmethoxy-phenylalkyl carboxylates as inhibitors of leukotriene biosynthesis” (Abbott Laboratories, priority 1997, dated 1998)
Structures can show the parent of a compound that is named as a salt. Where two headings read alike, the source gives them in different places.

Experiments:
leukotriene biosynthesis = assay: Inhibition of leukotriene biosynthesis in vivo, Ionophore-Induced Rat Pleural Inflammation Model; settings: 0.5 h, male rats, dosed in 0.2% methocel one hour prior to intrapleural A23187, lavage 30 min later, enzyme immunoassay
Experimental: Inhibition of leukotriene biosynthesis in vivo was evaluated using the Ionophore […]-Induced Rat Plueral Inflammation Model. […] Rats were dosed with experimental compounds in 0.2% methocel one hour prior to the intrapleural injection of the calcium ionophore, A23187. The rats where lightly anesthetized with Pentrane (Abbott Laboratories) and injected intrapleurally with 0.5 ml of 2% ethanol in injectable saline (Abbott Laboratories) containing 20 μg of A23187 (Cal BioChem-Novabiochem). Thirty minutes later the animals were euthanised and the pleural cavities lavaged with ice cold saline (Abbott Laboratories). The lavage fluid was then added to ice cold methanol (final methanol concentration 30%) to lyse cells and precipitate protein. Eicosanoids were determined by enzyme immunoassay by standard methods.

5-Lipoxygenase = assay: Inhibition of calcium ionophore-induced LTB4 formation in human polymorphonuclear leukocytes (PMNL), in vitro; type: cell-based; settings: 15 min preincubation, calcium ionophore stimulation 10 min at 37° C., LTB4 by enzyme-linked immunoassay or HPLC, read-out: IC50, In Vitro Inhibitory Potencies Against 5-Lipoxygenase From Stimulated LTB4 Formation in Human Polymorphonuclear Leukocytes
Experimental: Inhibition of leukotriene biosynthesis was evaluated in vitro using an assay involving calcium ionophore-induced LTB4 expressed in human polymorphornuclear leukocytes (PMNL). Human PMNL isolated from heparinized (20 USP units/mL) venous blood (25 mL) obtained from healthy volunteers was layered over an equal volume of Ficoll-Hypaque Mono-Poly Resolving Medium (ICN Flow, Costa Mesa, Calif.) and centrifugated at 400×g for 40 minutes at 20° C. The PMNL was collected, erythrocytes lysed and washed 2× and suspended at 1.0×10^7 cells/mL in Earle's balanced salt solution with 17 mM Earle's HEPES. Aliquots of the cell suspension were preincubated with test compounds dissolved in DMSO (final concentration <2%) for 15 minutes and stimulated with calcium ionophore (final concentration 8.3, μM) for 10 minutes at 37° C. Incubations were stopped with the addition of two volumes of ice-cold methanol followed by centrifuging the cell suspensions at 4° C. for 10 minutes at ~450×g. The amount of LTB4 in the methanol extract was analyzed by enzyme-linked immunoassay or by HPLC analysis.

Row | Structure (SMILES) | IC50 (5-Lipoxygenase) | IC50 (5-Lipoxygenase; sodium salt) | inhibition in vivo at 3 mg/kg (leukotriene biosynthesis)
1 | CCC(C(=O)O)(c1ccc(OCc2ccc3ccccc3n2)cc1)c1ccc(OCc2ccc3ccccc3n2)cc1 [Example 24, 2,2-bis(4-(2-quinolylmethoxy)phenyl)butyric acid] | – | – | 38%
2 | O=C(O)CC(c1ccc(OCc2ccc3ccccc3n2)cc1)c1ccc(OCc2ccc3ccccc3n2)cc1 [Example 34, 3,3-bis(4-(2-quinolylmethoxy)phenyl)propionic acid sodium salt] | 70 nM | – | 30%
3 | CC(C)(C(=O)O)C(c1ccc(OCc2ccc3ccccc3n2)cc1)c1ccc(OCc2ccc3ccccc3n2)cc1 [Example 26, 2,2-dimethyl-3,3-bis(4-(2-quinolylmethoxy)phenyl)propionic acid sodium salt] | 80 nM | – | 50%
4 | CC(CCC(=O)O)(c1ccc(OCc2ccc3cc(F)ccc3n2)cc1)c1ccc(OCc2ccc3cc(F)ccc3n2)cc1 [Example 11, 4,4-bis(4-(6-fluoro-2-quinolylmethoxy)phenyl)pentanoic acid sodium salt] | 40 nM | – | 42%
5 | CC(C)(CON=CC(=O)O)C(c1ccc(OCc2ccc3ccccc3n2)cc1)c1ccc(OCc2ccc3ccccc3n2)cc1 [Example 28, 2,2-dimethyl-3,3-bis(4-(2-quinolylmethoxy)phenyl)-1-propyliminoxyacetic acid] | 34 nM | – | –
6 | CC(CCC(=O)O)(c1ccc(OCc2nc3ccccc3s2)cc1)c1ccc(OCc2nc3ccccc3s2)cc1 [Example 8, 4,4-bis(4-(2-benzothiazoylmethoxy)phenyl)pentanoic acid] | 46 nM | – | –
7 | CC(C(=O)O)(c1ccc(OCc2ccc3ccccc3n2)cc1)c1ccc(OCc2ccc3ccccc3n2)cc1 [Example 12, 2,2-bis(4-(2-quinolylmethoxy)phenyl)propionic acid] | 32 nM | – | –
8 | CC(C)(C=NOCC(=O)O)C(c1ccc(OCc2ccc3ccccc3n2)cc1)c1ccc(OCc2ccc3ccccc3n2)cc1 [Example 27, sodium salt] | 28 nM | – | 42%
9 | CC(CCC(=O)O)(c1ccc(OCc2ccc3ccccc3n2)c(Cl)c1)c1ccc(OCc2ccc3ccccc3n2)c(Cl)c1 [Example 20, 4,4-bis(3-chloro-4-(2-quinolylmethoxy)phenyl)pentanoic acid] | 26 nM | – | –
10 | CC(CCC(=O)O)(c1ccc(OCc2nc3ccccc3s2)cc1)c1ccc(OCc2nc3ccccc3s2)cc1 [Example 9, 4,4bis(4-(2-benzothiazoylmethoxy)phenyl)pentanoic acid sodium salt] | – | 50 nM | –
11 | CC(O)(c1ccc(OCc2ccc3ccccc3n2)cc1)c1ccc(OCc2ccc3ccccc3n2)cc1 [Example 25, 1,1-bis(4-(2-quinolylmethoxy)phenyl)ethanol] | 50 nM | – | –
12 | O=C(O)CON=CC(c1ccc(OCc2ccc3ccccc3n2)cc1)c1ccc(OCc2ccc3ccccc3n2)cc1 [Example 31, 2,2-bis(4-(2-quinolylmethoxy)phenyl)eth-1-yloximinoacetic acid] | 35 nM | – | –
13 | O=C(O)C(c1ccc(OCc2ccc3cc(F)ccc3n2)cc1)c1ccc(OCc2ccc3cc(F)ccc3n2)cc1 [Example 30, 2,2-bis(4-(6-fluoro-2-quinolymethoxy)phenyl)acetic acid] | 50 nM | – | –

More lines, main results first:

Row | IC50 (5-Lipoxygenase) | IC50 (5-Lipoxygenase; sodium salt) | Structure (SMILES) | inhibition in vivo at 3 mg/kg (leukotriene biosynthesis)
14 | 25 nM | – | CC(=NOCCC(C)(c1ccc(OCc2ccc3ccccc3n2)cc1)c1ccc(OCc2ccc3ccccc3n2)cc1)C(=O)O [Example 36, [3,3-bis-(2-quinolylmethoxyphenyl)but-1-yl]-2-iminoxypropionic acid] | –
15 | 40 nM | – | CC(CCC(=O)O)(c1ccc(OCc2ccc3ccccc3n2)cc1)c1ccc(OCc2ccc3ccccc3n2)cc1 [Example 1, 4,4-bis(4-(2-quinolylmethoxy)phenyl)pentanoic acid] | –
16 | 60 nM | – | CC(=NOCCC#CC(O)(c1ccc(OCc2ccc3ccccc3n2)cc1)c1ccc(OCc2ccc3ccccc3n2)cc1)C(=O)O [Example 38, [5,5-bis(4-(2-quinolylmethoxy)phenyl)-5-hydroxy-3-pentyn-1-yl]-2-iminoxypropionic acid sodium salt] | 40%
17 | 40 nM | – | CC(CCC=NOCC(=O)O)(c1ccc(OCc2ccc3ccccc3n2)cc1)c1ccc(OCc2ccc3ccccc3n2)cc1 [Example 7] | –
18 | – | 69 nM | CC(CCC(=O)O)(c1ccc(OCc2ccc3ccccc3n2)cc1)c1ccc(OCc2ccc3ccccc3n2)cc1 [Example 2, 4,4-bis(4-(2-quinolylmethoxy)phenyl)pentanoic acid sodium salt] | 53%
19 | 43 nM | – | CC(CCCC(=O)O)(c1ccc(OCc2ccc3ccccc3n2)cc1)c1ccc(OCc2ccc3ccccc3n2)cc1 [Example 14, 5,5-bis(4-(2-quinolylmethoxy)phenyl)hexanoic acid] | 32%
20 | 35 nM | – | CC(=NOCCCC(C)(c1ccc(OCc2ccc3ccccc3n2)cc1)c1ccc(OCc2ccc3ccccc3n2)cc1)C(=O)O [Example 6, [4,4-bis(4-(2-quinolylmethoxy)phenyl)pent-1-yl]-2-iminoxypropionic acid] | –
21 | 30 nM | – | CC(CCCON=CC(=O)O)(c1ccc(OCc2ccc3ccccc3n2)cc1)c1ccc(OCc2ccc3ccccc3n2)cc1 [Example 5, [4,4-bis(4-(2-quinolylmethoxy)phenyl)pent-1-yl]iminoxyacetic acid] | –
